Results taken from US9757393B2 (priority 2015, dated 2017).

Experiments:
[1] = system: HFD-fed C57BL/6J mice; experiment: Blood glucose, HbA1c, blood lipids, insulin and leptin levels in HFD-fed mice; assay type: in vivo; settings: for Blood Profiles FFA / Blood Profiles HDL-C / Blood Profiles HbA1c / Blood Profiles LDL-C: oral gavage daily for 4 weeks; for blood glucose levels / blood insulin levels / blood leptin levels / blood total cholesterol (TC) levels / blood triglyceride (TG) level: vs HF group
Experimental: (§1) Experimental Animals: the experiments are conducted under the guidelines of the Institutional Animal Care and Use Committee of Central Taiwan University of Science and Technology. As previously described, four-week-old male C57BL/6J mice (n=63) is purchased from the National Laboratory Animal Breeding and Research Center, Ministry of Science and Technology. After 1-week of acclimatization, mice are designed to initiate the study, and the study lasts for 12 weeks. […] The CON group and high-fat control (HF) group are given with vehicle only. The low-fat diet consisted of fat 10%, whereas the high-fat diet (HFD) consisted of fat 45% (of total energy, % kcal). The compositions of the experimental diets are shown as described. At the end of the study, food is derived from the animals (from 10 p.m. to 10 a.m.). On the next day, the mice are sacrificed, and blood and tissue are collected for analysis. Livers, skeletal muscles, and white adipose tissues (WATs) (including epididymal, mesenteric and retroperitoneal WAT) are excised and weighed, and then immediately stored in a freezer at −80° C. Heparin (30 units/mL) (Sigma) is added to blood samples. Plasma samples are collected by centrifugation at 1600 g for 15 min at 4° C. within 30 min, and plasma is obtained for insulin and leptin level analysis.
Blood Glucose and HbA1c Levels. Blood samples (0.8 mL) are collected from the retro-orbital sinuses of fasting mice, and glucose level is measured by the glucose oxidase method (model 1500; Sidekick Glucose Analyzer; YSI Inc., Yellow Springs, Ohio, USA). Percent HbA1c is detected with a Hemoglobin A1c kit (BioSystems S.A., Barcelona, Spain). Plasma triglycerides (TG), total cholesterol (TC), free fatty acids (FFA), high-density lipoprotein cholesterol (HDL-C), and low density lipoprotein cholesterol (LDL-C) are determined using commercial assay kits (Triglycerides-E test, Cholesterol-E test, and FFA-C test, Wako Pure Chemical, Osaka, Japan; HDL-C-test and LDL-C-test, Roche Diagnostics GmbH, Indianapolis, USA) according to their instructions. A mouse insulin ELISA kit (Sibayagi, Gunma, Japan) and mouse leptin ELISA kit (Morinaga, Yokohama, Japan) are used to measure blood insulin and leptin levels, respectively.

[2] = system: HFD-fed C57BL/6J mice; experiment: Histopathology examination of epididymal WAT and liver tissue; assay type: in vivo; settings: for ballooning degeneration of hepatocyte: liver tissue; for average area of adipocytes (epididymal WAT): oral gavage daily for 4 weeks
Experimental: as §1
A portion of the collected epididymal WAT and liver tissue is fixed with formalin (200 g/kg) neutral buffered solution and embedded in paraffin. Sections (8 μm) are cut and stained with hematoxylin and eosin. A microscope (Leica, DM2500) and Leica Digital camera (DFC-425-C) are used for microscopic examination and images taken, respectively.

[3] = system: membrane GLUT4; experiment: Western blotting of membrane GLUT4 in skeletal muscle; assay type: in vivo, C57BL/6J mice; settings: HFD-fed mice; for muscular membrane GLUT4 protein contents: vs HF group
Experimental: as §1
Protein extractions and immunoblots for the determination of membrane GLUT4, phospho-AMPK (Thr172), and phospho-Akt (Ser 473) proteins are carried out on frozen skeletal muscle and liver tissue from mice, which follows a previous paper. Additionally, membrane GLUT4 is carried out on frozen skeletal muscle from mice, and the total membrane fractions are collected with buffer and centrifuged as a previously described. The protein contents of membrane GLUT4, phospho-AMPK, phospho-Akt, total AMPK, and total Akt are detected by western blotting. Western blotting has been determined as described elsewhere. Subsequently, antibodies are detected using horseradish peroxidase linked to a goat anti-IgG rabbit secondary antibody and visualized using an ECL system. Membrane GLUT4, structural proteins GAPDH and β-actin are purchased from Santa Cruz Biotechnology (Santa Cruz, Calif., USA); phospho-AMPK was obtained from Abcam Inc. (Cambridge, Mass., USA); phospho-Akt, total AMPK, and total Akt are from Cell Signaling Technology, Inc. (Danver Mass., USA); the BCA protein assay kit is from Thermo Scientific (Rockford, Ill., USA); and the ECL reagent kit is from GE Healthcare BioSciences (Buckinghamshire, UK). The secondary antibody antirabbit is from Jackson ImmunoResearch Laboratories, Inc. (West Grove, Pa., USA). The density blotting is analyzed using Alpha Easy FC software (Alpha Innotech Corp., Randburg, South Africa). Structural proteins GAPDH and β-actin are obtained by stripping the nitrocellulose membrane proteins of liver and skeletal muscle, respectively.

[4] = system: G6 Pase mRNA; experiment: Semiquantitative RT-PCR, liver tissue: G6 Pase; assay type: in vivo, C57BL/6J mice; settings: HFD-fed mice
Experimental: as §1
(§2) The experiment is performed as in a previously described protocol. Total RNA from the liver tissue is isolated with a Trizol reagent (Molecular Research Center, Inc., Cincinnati, Ohio, USA) according to the manufacturer's directions. Total RNA (1 μg) is reverse transcribed to cDNA with 5 μL of Moloney murine leukemia virus reverse transcriptase (Epicenter, Madison, Wis., USA) as a previously described protocol. […] The relative density of the band is evaluated using AlphaDigiDoc 1201 software (Alpha Innotech Co., San Leandro, Calif., USA). All of the measured PCR products are normalized to the amount of cDNA of GAPDH in each sample.

[5] = system: apo C-III mRNA; experiment: Semiquantitative RT-PCR, liver tissue: apo C-III; assay type: in vivo, C57BL/6J mice; settings: HFD-fed mice
Experimental: as §1, §2

CC(C)[C@@H](C)C=C[C@@H](C)[C@H]1CC[C@H]2C3=CCC4C[C@@H](O)CC[C@]4(C)C3=CC[C@]12C (stereo partly drawn) [ergostatrien-3β-ol, ergosta-7,9(11),22-trien-3β-ol]
levels of TG (circulating) ([1]; dose not specified): moderate reduction | Blood Profiles FFA ([1]; 10 mg/kg/day): 1.06 ± 0.10 meq/L | Blood Profiles HDL-C ([1]; 10 mg/kg/day): 82.2 ± 3.9 mg/dL | Blood Profiles HbA1c ([1]; 10 mg/kg/day): 5.8 ± 0.7 % | Blood Profiles FFA ([1]; 20 mg/kg/day): 1.05 ± 0.09 meq/L | Blood Profiles HDL-C ([1]; 20 mg/kg/day): 83.0 ± 2.0 mg/dL | Blood Profiles HbA1c ([1]; 20 mg/kg/day): 5.7 ± 0.5 % | Blood Profiles LDL-C ([1]; 20 mg/kg/day): 103.7 ± 10.8 mg/dL | Blood Profiles FFA ([1]; 40 mg/kg/day): 1.03 ± 0.05 meq/L | Blood Profiles HDL-C ([1]; 40 mg/kg/day): 83.8 ± 1.6 mg/dL | Blood Profiles HbA1c ([1]; 40 mg/kg/day): 5.1 ± 0.3 % | Blood Profiles LDL-C ([1]; 40 mg/kg/day): 86.8 ± 11.5 mg/dL | blood glucose levels ([1]; 10 mg/kg/day): significantly reduce | blood insulin levels ([1]; 10 mg/kg/day): decrease | blood leptin levels ([1]; 10 mg/kg/day): decrease | blood total cholesterol (TC) levels ([1]; 10 mg/kg/day): lower | blood triglyceride (TG) level ([1]; 10 mg/kg/day): decrease | blood glucose levels ([1]; 20 mg/kg/day): significantly reduce | blood insulin levels ([1]; 20 mg/kg/day): decrease | blood leptin levels ([1]; 20 mg/kg/day): decrease | blood total cholesterol (TC) levels ([1]; 20 mg/kg/day): lower | blood triglyceride (TG) level ([1]; 20 mg/kg/day): decrease | blood glucose levels ([1]; 40 mg/kg/day): significantly reduce | blood insulin levels ([1]; 40 mg/kg/day): decrease | blood leptin levels ([1]; 40 mg/kg/day): decrease | blood total cholesterol (TC) levels ([1]; 40 mg/kg/day): lower | blood triglyceride (TG) level ([1]; 40 mg/kg/day): decrease | ballooning degeneration of hepatocyte ([2]; 10 mg/kg/day): decreases | ballooning degeneration of hepatocyte ([2]; 20 mg/kg/day): decreases | ballooning degeneration of hepatocyte ([2]; 40 mg/kg/day): decreases | average area of adipocytes (epididymal WAT) ([2]; 10 mg/kg/day): 4204.0±131.5 μm2 | average area of adipocytes (epididymal WAT) ([2]; 20 mg/kg/day): 3535.7±340.2 μm2 | average area of adipocytes (epididymal WAT) ([2]; 40 mg/kg/day): 3458.9±30.7 μm2 | enhancement of muscular membrane GLUT4 protein ([3]; 40 mg/kg/day): approximately 2.7 fold | muscular membrane GLUT4 protein contents ([3]; 10 mg/kg/day): increased | muscular membrane GLUT4 protein contents ([3]; 20 mg/kg/day): increased | muscular membrane GLUT4 protein contents ([3]; 40 mg/kg/day): increased | mRNA level of G6 Pase ([4]; 10 mg/kg/day): decreased | mRNA level of G6 Pase ([4]; 20 mg/kg/day): decreased | mRNA level of G6 Pase ([4]; 40 mg/kg/day): decreased | mRNA level of apo C-III ([5]; 10 mg/kg/day): decreased | mRNA level of apo C-III ([5]; 20 mg/kg/day): decreased | mRNA level of apo C-III ([5]; 40 mg/kg/day): decreased
